# Counter-ions that a name gives are not always drawn.
# What was measured:
# [1] = system: male Japanese white rabbits; test: Measurement of tear secretion in rabbits given a β3 AR stimulant (Example 1), with or without ICI-118551 pre-treatment; format: in vivo, rabbit
# Experimental: Four fasting male Japanese white rabbits (about 3 kg) were allocated to each group. Compound 1 (hydrochloride, 3 or 30 mg/kg), a β3 AR stimulant, or the vehicle (0.5% gum Arabic) was administered to the duodenum through a needle placed in the duodenum of a rabbit, which was anesthetized with urethane (25%, 5 mL/kg, subcutaneously). The quantity of tear secretion was measured for 5 min before drug administration and for 5 min at 20 min after drug administration in the following manner. One piece each of pre-weighed filter paper (Wattman No. 41, 0.22 mm thick, 2.5×1.5 mm) was inserted to each of the upper and lower eyelids of either right or left eye. The difference in weight of the filter papers before and after insertion (post-insertion weight−pre-insertion weight) was defined as the quantity of tear secretion. Fifty (50) μL of a local anesthetic agent, 0.4% oxybuprocaine hydrochloride (Santen Co.), was instilled into eyes 5 min before each measurement. Tear and the instilled local anesthetic were wiped immediately before the filter paper was inserted. Filter papers recovered after each measurement were placed into tubes. A phosphate buffer (pH 7.4) (500 μL) was added to each of the tubes, and they were agitated for 30 sec. After the filter papers were removed and the mixture was centrifuged at 1,880×g for 5 min, protein concentrations in supernatant were measured using Micro BCA Protein Assay Reagent Kit (Pierce Co.). The quantity of protein in tear was calculated based on the protein concentration and the quantity of tear secretion at each time. The difference in the quantity of tear secretion before administration of a test drug and that at each measurement after administration was defined as a change in the quantity of tear secretion or protein in tear. Each milligram of the change in the quantity of tear was taken as 1 μL in tabulation. As a result, administration of Compound 1 (hydrochloride, 3 or 30 mg/kg) into the duodenum facilitated the tear secretion and protein secretion in tear.
# In addition, in order to study the role played by a β2 AR stimulating activity in the above-described actions of Compound 1, 30 μg/kg of ICI-118551 (Sigma Co.), a selective β2 AR inhibitor, was administered intravenously 5 min before administration of Compound 1 (30 mg/kg) and the same test was performed. The facilitating activities of tear secretion and protein secretion in tear by Compound 1 were not affected by pre-treatment with the selective β2 AR inhibitor, ICI-118551 (30 μg/kg, i.v.) (FIG. 5). The results confirmed that the Compound 1's activities facilitating tear secretion and protein secretion in tear were exerted by way of β3 AR.
# [2] = system: male Japanese white rabbits; test: Measurement of tear in rabbits given a β3 AR stimulant having a β2 AR stimulating activity (Example 2); format: in vivo, rabbit; details: for total quantity of protein secretion in tear / total quantity of tear secretion: 60 min, compared to Control group
# Experimental: Four fasting male Japanese white rabbits (about 3 kg) were allocated to each group. Compound 2 (0.3, 1 or 10 mg/kg), which is a β3 AR stimulant having a β2 AR stimulating activity, terbutaline sulfate (10 mg/kg), which is a β2 AR stimulant, or their vehicle (distilled water) was administered to the duodenum through a needle placed in the duodenum of a rabbit which was anesthetized with urethane (25%, 5 mL/kg, subcutaneously). In the same manner as in Example 1, quantities of tear secretion and protein in tear were measured for each 5 min before drug administration and at 5, 20, 30, 40 and 50 min after drug administration. The total quantities of tear secretion and protein in tear were defined as the sum total of the quantities of secretion at each measurement time during 60 min after administration of the test drug. Each […] of the change in the quantity of tear was considered as 1 μL in tabulation.
# male SD strain rats = test: Measurement of tear in rats given a β3 AR stimulant having a β2 AR stimulating activity (Example 3); format: in vivo, rat; details: for total quantity of protein secretion in tear / total quantity of tear secretion: 60 min, compared to Control group
# Experimental: Nine (9) to 10 fasting male SD strain rats (7 weeks old) were allocated to each group. Rats were fixed in prone position under urethane anesthesia (25%, 5 mL/kg, subcutaneously). Compound 2 (0.3, 1 or 10 mg/kg), which is a β3 AR stimulant having a β2 AR stimulating activity, terbutaline sulfate (10 mg/kg), which is a β2 AR stimulant, or their vehicle (distilled water) were administered to the duodenum through a needle placed in the duodenum. One end of a capillary (Drummond Microdispenser Co. 10 μL) was placed at the inner canthus of rat right eye after tear was wiped. The quantity of tear secretion was measured by the length of the capillary filled with tear in 60 minutes after drug administration. The total quantity of tear secretion (μL) was calculated using the inner diameter of the capillary and the length of the capillary filled with tear. After the quantity of tear secretion was measured, the tear in the capillary was recovered in a tube to measure the protein concentration using Micro BCA Protein Assay Reagent Kit (Pierce Co.). The total quantity of protein in tear was calculated using the obtained protein concentration and the total quantity of tear secretion.
# [3] = system: male Japanese white rabbits; test: Measurement of tear in rabbits following ocular instillation (Example 4); format: in vivo, rabbit; details: 0.1% solution, 50 μL
# Experimental: Four fasting male Japanese white rabbits (about 3 kg) were allocated to each group. After rabbits were anesthetized with urethane (25%, 5 mL/kg, subcutaneously), 50 μL of Compound 2 (0.1% solution) or the vehicle (a phosphate buffer solution, pH 7.4) was instilled in either right or left eye. The quantity of tear secretion was measured and calculated for each 5 min before and at 5 and 20 min after instillation in the same manner as in Example 1. The difference in the quantity of tear secretion before administration of a test drug and that at each measurement time after ocular instillation was defined as a change in the quantity of tear secretion. Each milligram of the change in the quantity of tear secretion was considered as 1 μL in tabulation.
# rabbit conjunctiva = test: Mucin secretion from the rabbit conjunctiva following ocular instillation, impression cytology method (Example 5); format: in vivo; details: 0.1% solution, 50 μL, 30 min after instillation, vs vehicle, rabbits
# Experimental: Four male Japanese white rabbits (about 3 kg) were allocated to each group. After rabbits were anesthetized with ketamine-xylazine (3:1), 50 μL of Compound 2 (0.1% solution), terbutaline sulfate (0.1% solution) or their vehicle (a phosphate buffer solution, pH 7.4) were instilled in either side of eyes. Mucin secretion from the conjunctiva was measured 30 min after instillation by impression cytology method. That is, after ocular instillation of 50 μL of a local anesthetic (0.4% oxybuprocaine hydrochloride by Santen Co.), residual tear was wiped 5 min after instillation and 3×3 mm cellulose acetate filter paper was pressed on the conjunctiva for 30 sec. Then, PAS staining was performed with the recovered filter papers in the same manner as in Example 2. After filter papers were cleared and embedded, the number of PAS positive goblet cells existing in a certain visual field of a microscope was counted. Decreases in the count of PAS positive goblet cells indicate that mucin secretion from the conjunctiva is facilitated. […] However, terbutaline sulfate had no effect (FIG. 9).
# [4] = Compound 1 30 mg/kg, ICI-118551 30 μg/kg i.v. 5 min before
# [5] = hydrochloride, 3 or 30 mg/kg into the duodenum, anesthetized rabbits, 5 min at 20 min after administration vs before
# [6] = 0.3, 1 and 10 mg/kg into the duodenum
# [7] = doses of 1 mg/kg and above into the duodenum
# [8] = 10 mg/kg into the duodenum, compared to Compound 2 (10 mg/kg) group
structure (smiles),measurement,setting,value
"CCOC(=O)COc1cc(C)c(CCN[C@@H](C)[C@H](O)c2ccc(O)cc2)cc1C [Compound 1, ethyl 2-[4-[2-[[(1S,2R)-2-hydroxy-2-(4-hydroxy-phenyl)-1-methylethyl]amino]ethyl]-2,5-dimethylphenoxy]-acetate]",change in the quantity of protein in tear,"[1]; 30 mg/kg into the duodenum, compared to Control group (p<0.05, Dunnett)",significantly increased
same,facilitating activity of protein secretion in tear after pre-treatment with selective β2 AR inhibitor,[1]; [4],not affected
same,facilitating activity of tear secretion after pre-treatment with selective β2 AR inhibitor,[1]; [4],not affected
same,protein secretion in tear,[1]; [5],facilitated
same,tear secretion,[1]; [5],facilitated
C[C@H](NCCc1ccc(OCC(=O)O)cc1)[C@H](O)c1ccc(O)cc1 [Compound 2],protein secretion in tear,[2]; [6],facilitated dose-dependently
same,tear secretion,[2]; [6],facilitated dose-dependently
same,total quantity of protein secretion in tear,[2]; [7],significantly increased
same,total quantity of tear secretion,[2]; [7],significantly increased
same,protein secretion in tear,male SD strain rats; [6],facilitated dose-dependently
same,tear secretion,male SD strain rats; [6],facilitated dose-dependently
same,total quantity of protein secretion in tear,male SD strain rats; [7],significantly increased
same,total quantity of tear secretion,male SD strain rats; [7],significantly increased
same,tear secretion,[3],facilitated
same,quantity of tear secretion measured for 5 min after ocular instillation,[3]; compared to Control group,significantly increased
same,mucin secretion from the conjunctiva (count of PAS positive goblet cells),rabbit conjunctiva,facilitated mucin secretion from the conjunctiva more than the vehicle did
"CC(C)(C)NCC(O)c1cc(O)cc(O)c1 (stereo not drawn) [terbutaline sulfate, reference compound]",total quantity of protein secretion in tear,[2]; 10 mg/kg into the duodenum,significantly increased
same,total quantity of tear secretion,[2]; 10 mg/kg into the duodenum,significantly increased
same,increase in total quantity of protein secretion in tear,[2]; [8],significantly lower
same,increase in total quantity of tear secretion,[2]; [8],significantly lower
same,total quantity of protein secretion in tear,male SD strain rats; 10 mg/kg into the duodenum,significantly increased
same,total quantity of tear secretion,male SD strain rats; 10 mg/kg into the duodenum,significantly increased
same,total quantity of protein in tear,male SD strain rats; [8],significantly lower
same,mucin secretion from the conjunctiva (count of PAS positive goblet cells),rabbit conjunctiva,no effect

# Reference: patent publication US20100197788A9, “Preventive or therapeutic agent for disease caused by decrease in lacrimal fluid” (priority 2005, published 2010)
